{"source": "patent US11957783B2", "about": "“Topical immunosensitizers to treat viral and fungal infections” (Squarex, LLC, priority 2018, dated 2024)", "key": {"[1]": {"experiment": "Rash (erythema) from the sensitization dose (Example 2)", "format": "in vivo, human", "settings": "pooled treatment groups B and C; placebo 2 of 13", "text": "Visit 1: Upon entering the study, patients are sensitized to squaric acid dibutyl ester (SADBE) by dipping a cotton-tipped swab in a 2% solution of SADBE in DMSO and swabbing a 1 cm^2 area on the forearm. Participants are told then to wait at least 2 weeks for their first treatment."}, "[2]": {"system": "blood cells (B-Cells, T-Cells, helper/cytotoxic)", "experiment": "Blood cell counts of subjects", "format": "in vivo, human", "settings": "for Absolute Count CD19 (B-Cells), group average / Helper/Cytotoxic Ratio, group average / Percentage CD3 (T-Cells), group average / Percentage CD19 (B-Cells), group average / T-cell to B-cell ratio, group average: n = 12", "experimental": "(§1) After a screening visit at which blood was drawn to test for IgG antibody against HSV-1 and subjects were interviewed for inclusion/exclusion criteria, selected subjects returned for blood draws on day 1. After the blood draw on day 1, subjects in group A only were dosed with SADBE. A petrolatum donut was applied with a cotton swab to form about a 1 cm diameter donut on skin on the inner aspect of the upper arm. Then a separate cotton swab was dipped in a 2% SADBE solution (w/v) in DMSO, and the swab was then used to apply about 10-20 mg of solution over about a 1 cm diameter circle within the petrolatum donut. Immediately after application, the application site was covered with TEGADERM. Subjects were advised to remove the TEGADERM and rinse and wipe the spot three hours later. The group A subjects then returned for blood draws on days 15 and 57 and were queried about adverse events on those dates.\n(§2) At this study visit where blood was drawn it was tested for blood cell counts, various cytokine levels, and anti-HSV-1 IgG quantitative levels.\nCertain blood cell count parameters were measured in the study. Differences vs. group A day 1 that are statistically significant are highlighted in bold underline."}, "[3]": {"system": "Interleukin 2 Receptor (CD25)", "experiment": "Plasma level of Interleukin 2 Receptor (CD25)", "format": "in vivo, human", "settings": "for Interleukin 2 Receptor (CD25) in plasma, number of subjects with undetectable levels / Interleukin 2 Receptor (CD25) in plasma, group average: n = 12; for Interleukin 2 Receptor (CD25) in plasma, number of subjects with undetectable levels: lower limit of detection 9.19 pg/ml; for Interleukin 2 Receptor (CD25) in plasma, group average: undetectable counted as 9.19 pg/ml", "experimental": "as §1, §2\nAll subjects had detectable IL-2 and the large majority had detectable IL-2 receptor.\nFor IL2R the detection limit was 9.19 pg/ml and the number of subjects who measured undetectable are listed. If a subject's IL2R was undetectable, the value of 9.19 pg/ml was used for that subject in detecting the average of the group. No subjects had undetectable IL2."}, "herpes labialis outbreak [4]": {"system": "herpes labialis outbreak", "experiment": "Clinical trial of herpes labialis outbreaks after sensitization dose (Example 2)", "format": "in vivo, human", "experimental": "The median time to the next outbreak for the placebo group was 40 days vs more than 122 days for the 2.0% SADBE group, which difference was highly significant (P=0.009) (Palli 2017). SADBE is a topical immunosensitizer that induces a delayed-type hypersensitivity response and is commonly used in the treatment of verruca vulgaris and alopecia areata (Lee 1999; Silverberg 2000, Rokhshar 1998). […]\n(p<0.05). The average days to the first outbreak after the sensitization dose was also measured. […] The A: placebo, 0% SADBE in DMSO."}, "[5]": {"experiment": "Adverse events after single topical SADBE dose, Phase 1 study (Example 1)", "format": "in vivo, human", "experimental": "as §1\nOf the 12 subjects treated, two experienced stinging at the application site, and one had nausea that was ruled possibly related to the study drug."}, "anti-HSV-1 IgG": {"system": "anti-HSV-1 IgG", "experiment": "Serum anti-HSV-1 IgG quantitative levels", "format": "in vivo, human", "settings": "for Level of anti-HSV1 IgG, group average: n = 12", "experimental": "as §1, §2\nAnti-HSV-1 IgG was quantified in serum collected at each study visit."}, "herpes labialis outbreak [6]": {"system": "herpes labialis outbreak", "settings": "2.0% SADBE in DMSO once to arm; placebo 40 days; P=0.009; previous trial (Palli 2017); cited from earlier work"}}, "note": "Like-named read-outs stand apart in the source and are kept apart here."}
{"smiles": "CCCCOc1c(OCCCC)c(=O)c1=O", "note": "[SADBE, 3,4-Dibutoxy-3-cyclobutene-1,2-dione]", "values": [{"measurement": "subjects with rash (erythema) from the sensitization dose", "setting": "[1]", "value": "17 of 28"}, {"measurement": "Absolute Count CD19 (B-Cells), Sample/A1", "setting": "[2]; A15 / group A day 1", "value": 0.88}, {"measurement": "Helper/Cytotoxic Ratio, Sample/A1", "setting": "[2]; A15 / group A day 1", "value": 0.68}, {"measurement": "Percentage CD3 (T-Cells), Sample/A1", "setting": "[2]; A15 / group A day 1", "value": 1.02}, {"measurement": "Percentage CD19 (B-Cells), Sample/A1", "setting": "[2]; A15 / group A day 1", "value": 0.83}, {"measurement": "T-cell to B-cell ratio, Sample/A1", "setting": "[2]; A15 / group A day 1", "value": 1.35}, {"measurement": "Absolute Count CD19 (B-Cells), Sample minus A1", "setting": "[2]; A15 minus group A day 1", "value": "−22.63", "unit": "cells/mm^3"}, {"measurement": "Helper/Cytotoxic Ratio, Sample minus A1", "setting": "[2]; A15 minus group A day 1", "value": "−1.67"}, {"measurement": "Percentage CD3 (T-Cells), Sample minus A1", "setting": "[2]; A15 minus group A day 1", "value": 1.42, "unit": "%"}, {"measurement": "Percentage CD19 (B-Cells), Sample minus A1", "setting": "[2]; A15 minus group A day 1", "value": "−2.08", "unit": "%"}, {"measurement": "T-cell to B-cell ratio, Sample minus A1", "setting": "[2]; A15 minus group A day 1", "value": 2.41}, {"measurement": "Absolute Count CD19 (B-Cells), Sample/A1", "setting": "[2]; A57 / group A day 1", "value": 0.99}, {"measurement": "Helper/Cytotoxic Ratio, Sample/A1", "setting": "[2]; A57 / group A day 1", "value": 0.83}, {"measurement": "Percentage CD3 (T-Cells), Sample/A1", "setting": "[2]; A57 / group A day 1", "value": 1.03}, {"measurement": "Percentage CD19 (B-Cells), Sample/A1", "setting": "[2]; A57 / group A day 1", "value": 0.95}, {"measurement": "T-cell to B-cell ratio, Sample/A1", "setting": "[2]; A57 / group A day 1", "value": 1.01}, {"measurement": "Absolute Count CD19 (B-Cells), Sample minus A1", "setting": "[2]; A57 minus group A day 1", "value": "−1.85", "unit": "cells/mm^3"}, {"measurement": "Helper/Cytotoxic Ratio, Sample minus A1", "setting": "[2]; A57 minus group A day 1", "value": "−0.90"}, {"measurement": "Percentage CD3 (T-Cells), Sample minus A1", "setting": "[2]; A57 minus group A day 1", "value": 2.58, "unit": "%"}, {"measurement": "Percentage CD19 (B-Cells), Sample minus A1", "setting": "[2]; A57 minus group A day 1", "value": "−0.58", "unit": "%"}, {"measurement": "T-cell to B-cell ratio, Sample minus A1", "setting": "[2]; A57 minus group A day 1", "value": 0.69}, {"measurement": "Absolute Count CD19 (B-Cells), group average", "setting": "[2]; group A day 15 (A15)", "value": 171.74, "unit": "cells/mm^3"}, {"measurement": "Helper/Cytotoxic Ratio, group average", "setting": "[2]; group A day 15 (A15)", "value": 3.58}, {"measurement": "Percentage CD3 (T-Cells), group average", "setting": "[2]; group A day 15 (A15)", "value": 77.50, "unit": "%"}, {"measurement": "Percentage CD19 (B-Cells), group average", "setting": "[2]; group A day 15 (A15)", "value": 10.17, "unit": "%"}, {"measurement": "T-cell to B-cell ratio, group average", "setting": "[2]; group A day 15 (A15)", "value": 9.22}, {"measurement": "Absolute Count CD19 (B-Cells), group average", "setting": "[2]; group A day 57 (A57)", "value": 192.52, "unit": "cells/mm^3"}, {"measurement": "Helper/Cytotoxic Ratio, group average", "setting": "[2]; group A day 57 (A57)", "value": 4.35}, {"measurement": "Percentage CD3 (T-Cells), group average", "setting": "[2]; group A day 57 (A57)", "value": 78.67, "unit": "%"}, {"measurement": "Percentage CD19 (B-Cells), group average", "setting": "[2]; group A day 57 (A57)", "value": 11.67, "unit": "%"}, {"measurement": "T-cell to B-cell ratio, group average", "setting": "[2]; group A day 57 (A57)", "value": 7.50}, {"measurement": "Interleukin 2 Receptor (CD25) in plasma, Sample/A1", "setting": "[3]; A15 / group A day 1", "value": 1.23}, {"measurement": "Interleukin 2 Receptor (CD25) in plasma, Sample minus A1", "setting": "[3]; A15 minus group A day 1", "value": 167.04, "unit": "pg/mL"}, {"measurement": "Interleukin 2 Receptor (CD25) in plasma, Sample/A1", "setting": "[3]; A57 / group A day 1", "value": 0.96}, {"measurement": "Interleukin 2 Receptor (CD25) in plasma, Sample minus A1", "setting": "[3]; A57 minus group A day 1", "value": -26.24, "unit": "pg/mL"}, {"measurement": "Interleukin 2 Receptor (CD25) in plasma, number of subjects with undetectable levels", "setting": "[3]; group A day 15 (A15)", "value": 1}, {"measurement": "Interleukin 2 Receptor (CD25) in plasma, group average", "setting": "[3]; group A day 15 (A15)", "value": 899.81, "unit": "pg/mL"}, {"measurement": "Interleukin 2 Receptor (CD25) in plasma, number of subjects with undetectable levels", "setting": "[3]; group A day 57 (A57)", "value": 0}, {"measurement": "Interleukin 2 Receptor (CD25) in plasma, group average", "setting": "[3]; group A day 57 (A57)", "value": 706.52, "unit": "pg/mL"}, {"measurement": "proportion who had a first outbreak between 30 and 120 days after receiving the sensitization dose", "setting": "herpes labialis outbreak [4]; pooled groups B and C (2% SADBE in DMSO sensitization), placebo group A 4 of 14", "value": "5 of 26"}, {"measurement": "median time to the next outbreak, outbreaks in the 21 days after the sensitization dose excluded", "setting": "herpes labialis outbreak [4]; treatment group, counting from day of sensitization dose, placebo 56 days", "value": "greater than 120 days"}, {"measurement": "median time to the next outbreak", "setting": "herpes labialis outbreak [4]; treatment group, from sensitization dose (2% SADBE), placebo 42 days, log rank P 0.009", "value": "greater than 120 days"}, {"measurement": "median time to the next outbreak, counting from day 21 after the sensitization dose", "setting": "herpes labialis outbreak [4]; treatment group, placebo 35 days", "value": "greater than 99 days"}, {"measurement": "subsequent outbreak during the study time", "setting": "herpes labialis outbreak [4]; treatment groups B and C receiving 2% SADBE in DMSO as sensitization dose", "value": "usually did not have a subsequent outbreak during the study time"}, {"measurement": "median time to next HSV outbreak in treated patients without visible erythema at application site", "setting": "herpes labialis outbreak [4]; versus placebo", "value": "longer median time to the next HSV outbreak than patients receiving placebo"}, {"measurement": "rashes or delayed-type hypersensitivity reactions", "setting": "[5]; 12 subjects treated", "value": "No rashes or delayed-type hypersensitivity reactions were reported"}, {"measurement": "tolerability of study drug", "setting": "[5]; 12 subjects, single topical 2% SADBE in DMSO on arm", "value": "well tolerated"}, {"measurement": "subjects who experienced stinging at the application site", "setting": "[5]; of the 12 subjects treated", "value": "two"}, {"measurement": "subjects with nausea ruled possibly related to the study drug", "setting": "[5]; of the 12 subjects treated", "value": "one"}, {"measurement": "Level of anti-HSV1 IgG, Sample/A1", "setting": "anti-HSV-1 IgG; A15 / group A day 1", "value": 1.13}, {"measurement": "Level of anti-HSV1 IgG, Sample minus A1", "setting": "anti-HSV-1 IgG; A15 minus group A day 1", "value": 1.08, "unit": "IV"}, {"measurement": "Level of anti-HSV1 IgG, Sample/A1", "setting": "anti-HSV-1 IgG; A57 / group A day 1", "value": 0.91}, {"measurement": "Level of anti-HSV1 IgG, Sample minus A1", "setting": "anti-HSV-1 IgG; A57 minus group A day 1", "value": "−0.73", "unit": "IV"}, {"measurement": "change in anti-HSV1 IgG from day 15 to day 57 in group A", "setting": "anti-HSV-1 IgG; serum, after one SADBE dose, P<0.01", "value": "highly significant decrease"}, {"measurement": "Level of anti-HSV1 IgG, group average", "setting": "anti-HSV-1 IgG; serum, group A day 15 (A15)", "value": 9.39, "unit": "IV"}, {"measurement": "Level of anti-HSV1 IgG, group average", "setting": "anti-HSV-1 IgG; serum, group A day 57 (A57)", "value": 7.58, "unit": "IV"}, {"measurement": "median time to the next outbreak", "setting": "herpes labialis outbreak [6]", "value": "more than 122 days"}]}
